From PMC3471904 (PLoS ONE, 2012)
≈ marks a conversion by molar mass, not a printed value. Where “and” joins values, the source holds several entries; their conditions need not be identical. Identical values can stand only once. Entries after “also recorded” stand apart in the source; their conditions may differ. Like-named read-outs stand apart in the source and are kept apart here.

Legend:
F. novicida = tested on: F. novicida; set-up: species or system Galleria mellonella; conditions: in vivo
Wild-type F. novicida = assay: microbe, parasite or virus in culture; format: cell-based; conditions: for inhibition at 1000 µM: read-out: Inhibition of growth
F. novicida glpT mutant = format: cell-based
[1] = tested on: intracellular F. novicida in A549 human alveolar epithelial cells; assay: microbe, parasite or virus in culture; format: cell-based
[2] = tested on: intracellular F. novicida in RAW264.7 mouse macrophages; format: cell-based
[3] = tested on: intracellular F. novicida glpT mutant in A549 cells; format: cell-based
[4] = tested on: human lung epithelial A549 cells
[5] = tested on: mouse macrophage RAW264.7 cells
F. tularensis LVS DXR = F. tularensis LVS DXR (Francisella tularensis subsp. holarctica, UniProt Q2A4P9); assay: biochemical
F. tularensis LVS DXR, sequence (Q2A4P9 whole entry, looked up): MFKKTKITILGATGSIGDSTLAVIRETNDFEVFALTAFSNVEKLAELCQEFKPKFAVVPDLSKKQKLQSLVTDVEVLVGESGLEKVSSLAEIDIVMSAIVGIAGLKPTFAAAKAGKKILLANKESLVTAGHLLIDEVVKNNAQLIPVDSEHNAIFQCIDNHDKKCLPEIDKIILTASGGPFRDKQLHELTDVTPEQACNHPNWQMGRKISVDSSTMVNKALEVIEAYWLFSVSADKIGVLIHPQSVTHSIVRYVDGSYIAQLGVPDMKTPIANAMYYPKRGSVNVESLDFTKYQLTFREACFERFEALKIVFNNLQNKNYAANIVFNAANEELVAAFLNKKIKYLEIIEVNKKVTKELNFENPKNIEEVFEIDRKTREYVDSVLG

DXR of E. coli = conditions: cited from earlier work
[6] = tested on: M. tuberculosis whole cells; conditions: cited from earlier work
[7] = mouse, in vivo; cited from earlier work
DXR from M. tuberculosis = conditions: read-out: half maximal activity against DXR; cited from earlier work
[8] = Francisella tularensis, A549, 20 h, read-out: Inhibition of intracellular growth

SMILES	EC50 (Wild-type F. novicida) [µM]	Percent inhibition of growth (OD600 treated vs untreated) (Wild-type F. novicida) [%]	EC50 (Wild-type F. novicida; Francisella tularensis) [µM]	MIC (Wild-type F. novicida; Francisella tularensis, 48 h) [µM]	MIC (F. novicida glpT mutant) [µM]	Percent inhibition of growth (OD600 treated vs untreated) (F. novicida glpT mutant)	inhibition at 250 µM [1, 8] [%]	Intracellular F. novicida remaining [2]	Effect on intracellular glpT mutant replication [3]	Mean time to death (F. novicida; 30 mg/kg) [h]	Cytotoxicity by LDH release [4]	Cytotoxicity by LDH release [5]	inhibition at 1000 µM (Wild-type F. novicida; Francisella tularensis) [%]	Intracellular F. novicida remaining [1]	Effect on whole cells [6]	Well tolerated dose [7]	further results
O=C(O)c1cn(C2CC2)c2cc(N3CCNCC3)c(F)cc2c1=O [Ciprofloxacin]	–	–	–	–	–	–	–	–	–	–	–	–	–	–	–	–	Mean time to death (F. novicida; 20 mg/kg): 103 h
CC(=O)N(O)CCCP(=O)(OC(C)OC(=O)c1ccccc1)OC(C)OC(=O)c1ccccc1 (stereo not drawn) [Compound 1]	45.2 ± 3.7	100	45	202 (≈ 99.7 µg/mL)	200 (≈ 98.7 µg/mL)	100%	97 ± 0.8	1.68±0.28 ×10^5 CFU/well and 0.92±0.18 ×10^5 CFU/well	susceptible; also recorded: significant effect	93	did not induce cytotoxicity	did not induce cytotoxicity	–	–	–	–	inhibition at 400 µM [1, 8]: 99 ± 0.7%; Intracellular glpT mutant remaining [3]: 22.32±2.23 ×10^3 CFU/well
CCCCCCOP(=O)(CCCN(O)C(C)=O)OCCCCCC [Compound 2]	–	27±14	481 ± 44	1090 (≈ 400 µg/mL)	>1000	11±7%	–	–	–	–	–	–	–	–	–	–	MIC (Wild-type F. novicida; Francisella tularensis): 1100 µM (≈ 402 µg/mL)
CCOP(=O)(CCCN(O)C(C)=O)OCC [Compound 3]	–	–	–	–	–	–	–	–	–	–	–	–	–	–	–	–	Inhibition of F. novicida (result in words) (Wild-type F. novicida): did not effectively inhibit; also recorded: ineffective
CC(=O)N(O)CCCP(=O)(O)O [FR900098]	23.2 ± 1.2	97.1±0.8	23	254 (≈ 50.1 µg/mL)	>1000	55±5%	86 ± 6	–	not affected; also recorded: no effect	84	did not induce cytotoxicity	did not induce cytotoxicity	100	0.56±0.26 ×10^3 CFU/well and 0.59±0.40 ×10^3 CFU/well	no effect on whole cells	up to 300 mg/kg	IC50 (F. tularensis LVS DXR): 0.23 µM; Inhibition of intracellular growth [1]: 85±10%; IC50 (DXR of E. coli; read-out: IC50 against the DXR of E. coli): 0.062 µM
O=CN(O)CCCP(=O)(O)O [Fosmidomycin]	3.6 ± 0.2	99.6±0.2	3.5	136 (≈ 24.9 µg/mL)	>1000	did not inhibit the growth of the glpT mutant at all	98 ± 0.7	0.93±0.20 ×10^5 CFU/well	not affected; also recorded: no effect	102	did not induce cytotoxicity	did not induce cytotoxicity	100	0.07±0.03 ×10^3 CFU/well	no effect on whole cells	up to 300 mg/kg	Inhibition of growth (F. novicida glpT mutant): not able to inhibit F. novicida glpT growth at all; also recorded: completely resistant; Reduction of intracellular bacteria [1]: 2 log; IC50 (DXR of E. coli; read-out: half maximal activity against DXR): 0.035 µM; IC50 (DXR from M. tuberculosis): 0.31 µM
